The values below come from US10683486B2, “Methods for producing hepatocytes” (BioLamina AB, priority 2015, dated 2020).

Data set [1] relates to H9 human embryonic stem cells (hESCs). The data set is described as follows: Immunofluorescent staining of OCT4 and Nanog in pluripotent stem cells on the substrates prior to differentiation. The data set is classed as cell-based. To be noted: 24 hours post-replating. The procedure: (§1) H9 human embryonic stem cells (hESCs) were cultured and maintained in a humidified 37° C., 5% CO2 incubator. Three different substrates were then prepared in 96-well plates. The first substrate was pre-coated with Matrigel® (MG), and served as a control. The second substrate was coated with 5 micrograms per square centimeter (μg/cm^2) of laminin-521 (LN-521).
[…] Cell cultures were fixed in 100% ice-cold methanol at −20 degrees Celsius for 30 minutes, and adjacent cells were pre-washed twice with PBS buffer at room temperature. Cell monolayers were blocked with 0.1% PBS-Tween solution containing 10% bovine serum albumin for 1 hour. Subsequently, the monolayers were incubated with primary antibodies diluted in PBS-0.1% Tween/1% BSA at 4 degrees Celsius overnight. After 24 hours, the primary antibodies were removed and the fixed monolayers were washed three times with PBS-0.1% Tween/1% BSA. Cells were incubated with appropriate secondary antibodies diluted in PBS-0.1% Tween/1% BSA for one hour at room temperature and washed with three times with PBS. Cultures were then mounted with PermaFluor™ Aqueous Mounting Medium and counterstained with NucBlue Hoescht 33342. […] The images were processed through Zeiss Axiovision SE 64 Rel 4.8 and analyzed using Zeiss Axiovision version 4.9.1.0. […]

For data set [2], the system named is stem cell derived hepatocytes. In words: CYP3A and CYP1A2 activity using pGlo technology. The data set is classed as cell-based, human. To be noted: days 16-26. The protocol: Given that cell organisation and cell division are important factors in hepatocyte function, hepatocyte metabolic capacity in vitro was studied. Stem cell derived hepatocytes were first examined for cytochrome P450 expression using well characterised antisera. CYP3A and CYP1A2 activity were measured from days 16-26 using pGlo technology. CYP activity was expressed as relative light units (RLU) per milliliter of media per milligram of protein. Levels of significance were measured by student t-test.
All of the cells expressed high levels of each marker on each substrate.

Data set [3] relates to endoderm and hepatic cells differentiated from H9 hESCs. In words: Immunostaining of endoderm and hepatoblast markers (hepatoblast specification). In kind it is cell-based, human. The protocol: as §1
Differentiation was initiated at 40% confluence, by replacing serum-free medium mTESR1 (Stem Cell Technologies) with endoderm differentiation medium—RPMI 1640 containing 1×B27 (Life Technologies), 100 ng/mL Activin A (PeproTech) and 50 ng/mL Wnt3a (R&D). The medium was changed every 24 hours, for 72 hours. On day 4, endoderm differentiation medium was replaced with hepatoblast differentiation medium, and this was renewed every second day for a further five days. The medium consisted of KO-DMEM (Life Technologies), Serum Replacement (Life Technologies), 0.5% Glutamax (Life Technologies), 1% non-essential amino acids (Life Technologies), 0.2% β-mercaptoethanol (Life Technologies) and 1% dimethyl sulofxide (Sigma) for 5 days. At Day 9, differentiating cells were cultured in hepatocyte maturation medium HepatoZYME (Life Technologies) containing 1% Glutamax (Life Technologies), supplemented with 10 ng/mL hepatocyte growth factor (Peprotech) and 20 ng/mL oncostatin m (Peprotech).
Immunocytochemistry analysis was subsequently performed on hESC-derived hepatocytes. Cell cultures were fixed in 100% ice-cold methanol at −20 degrees Celsius for 30 minutes, and adjacent cells were pre-washed twice with PBS buffer at room temperature. Cell monolayers were blocked with 0.1% PBS-Tween solution containing 10% bovine serum albumin for 1 hour. Subsequently, the monolayers were incubated with primary antibodies diluted in PBS-0.1% Tween/1% BSA at 4 degrees Celsius overnight. After 24 hours, the primary antibodies were removed and the fixed monolayers were washed three times with PBS-0.1% Tween/1% BSA. Cells were incubated with appropriate secondary antibodies diluted in PBS-0.1% Tween/1% BSA for one hour at room temperature and washed with three times with PBS. Cultures were then mounted with PermaFluor™ Aqueous Mounting Medium and counterstained with NucBlue Hoescht 33342. The cells were imaged with the Zeiss Axio Observer Z1 microscope with LD PlanNeoFluar objective lenses, and a Zeiss AxioCamMR3 camera was used for image acquisition. The images were processed through Zeiss Axiovision SE 64 Rel 4.8 and analyzed using Zeiss Axiovision version 4.9.1.0. The percentage of positive cells and standard deviation was estimated from at least five random fields of view.
Next, the efficiency of the differentiation process was measured. FIG. 4 is a set of 15 photomicrographs of endoderm and hepatic cells grown on the three different substrates, 10× or 20× magnification (indicated by scale), on day 3 of differentiation.
FOXA2 was expressed on all substrates at day 3. […] SOX17 staining was more varied across the three substrates; it was lowest on MG and highest on LN-521. As cell differentiation progressed and hepatic fate was specified, cells began expressing high levels of hepatoblast markers. AFP, HNF4a, and CK19 were expressed in the majority of cells on all three substrates. […] As shown, hepatoblast specification on all three matrices appeared equivalent and highly efficient.

With “LN-521: substrate coated with 5 μg/cm^2 of laminin-521, the protein formed by joining α5, β2 and γ1 chains”, in data set [1], the “Expression Levels Nanog” value is given as 88.7% ± 5.4 and the “Expression Levels OCT4” value is 93.2% ± 5.9. Besides, the “CYP1A2 activity compared with MG control” value in data set [2] is recorded as “significantly greater than it was on the control”. In data set [3] (day 3 of differentiation), the “AFP, percentage of positive cells and standard deviation” value is on record as 98.3% ± 0.9; the “CK19, percentage of positive cells and standard deviation” value is reported as 98.5% ± 1.0; the “FOXA2, percentage of positive cells and standard deviation” value is recorded as 80.4% ± 3.5; the “HNF4A, percentage of positive cells and standard deviation” value is on record as 86.4% ± 2.3. Besides, the “SOX17, percentage of positive cells and standard deviation” value in data set [3] (day 3 of differentiation) is reported as 92.6% ± 1.8. Also, the “increase in cell size of differentiated hepatocytes” value in data set [3] (see CK19 photomicrographs) is given as “approximately 2 fold”.
